How the values were obtained:
[1] = tested on: Cdc2 (Cdk1) tyrosine 15-phosphorylation in NCI-H1299 cells; experiment: Cdc2 (Cdk1) tyrosine 15-phosphorylation-inhibitory effect in camptothecin-treated NCI-H1299 cells (ELISA); format: cell-based; details: Homo sapiens; NCI-H1299, camptothecin 200 nM 16 hours, then test compound + nocodazole 8 hours; read-out: Cdc2-Y15 Phosphorylation-Inhibitory Effect (H1299, + camptothecin) (EC50)
From the text: Pharmacological Test 2 (Method of Determining Drug Potency with Cells (Cdc2 (Cdk1) Tyrosine 15-Phosphorylation-Inhibitory Effect))
Fetal bovine serum (FBS) was obtained from Morgate; media RPMI1640 and DMEM were from Invitrogen; camptothecin was from Sigma; gemcitabine was from Nippon Eli Lilly; nocodazole and protease inhibitor cocktail were from Sigma; rabbit anti-Cdc2 antibody and mouse anti-Cdc2 antibody were from Santa Cruz Biotechnology; rabbit anti-tyrosine 15-phosphorylated Cdc2 antibody and horseradish peroxidase-labeled anti-mouse IgG antibody were from Cell Signaling Technology; sure blue reserve TMB peroxidase substrate was from Kirkegaard and Perry Laboratories.
Human non-small cell lung cancer cells (NCI-H1299) and human colon cancer cells (WiDr) were obtained from American Type Culture Collection (ATCC).
In the method of using NCI-H1299 cells, the cells were suspended in a medium of 10% FBS-added RPMI1640, and the cell suspension was applied to a 96-well Nunclondelta-processed plastic plate (bought from Nunc), in an amount of 2000 cells/100 μL/well, in which the cells were incubated overnight in 5% CO2-95% air at 37° C. Camptothecin was dissolved in dimethylsulfoxide (DMSO), and diluted with a medium of 10% FBS-added RPMI1640, and then this was applied to the plate on which the cells had been previously sowed, in an amount of 50 μL/well in such a manner that the final concentration of camptothecin could be 200 nM. Then, the cells were incubated for 16 hours at 37° C. in 5% CO2-95% air. The test compound was stepwise diluted with DMSO, then diluted with 4000 nM nocodazole-containing, 10% FBS-added RPMI1640, and applied to the plate on which the camptothecin-treated cells had been sowed, in an amount of 50 μL/well. The cells were incubated for 8 hours at 37° C. in 5% CO2-95% air, then the culture was removed, and a cytolytic buffer was added to the plate in an amount of 100 μL/well, shaken at 4° C. for 2 hours, then frozen at −80° C., and thawed to give a cell solution. Cdc2 and tyrosine 15-phosphorylated Cdc2 in the cell solution were determined through enzyme-linked immunosorbent assay (ELISA), and the ratio of tyrosine 15-phosphorylated Cdc2 to Cdc2 was calculated to obtain the 50% phosphorylation-inhibitory concentration of the test compound to the cells (EC50, nM). The cytolytic buffer used herein is an aqueous solution containing 20 mM Hepes (pH 7.5), 150 mM sodium chloride, 1 mM disodium ethylenediaminetetraacetate, 0.1% polyoxyethylene (10) octylphenyl ether, 1% protease inhibitor cocktail, 1 mM dithiothreitol, 2 mM sodium orthovanadate, 10 mM sodium fluoride and 10 mM glycerol diphosphate. Cdc2 was determined through ELISA as follows: A rabbit anti-Cdc2 antibody solution, which had been diluted 200-fold with 50 mM carbonate-bicarbonate buffer (pH 9.6), was applied to a 96-well maxisorpimmuno plate (bought from Nunc), in an amount of 50 μL/well, and statically kept overnight at 4° C. so as to fix the antibody on the plate. Next, this was washed three times with phosphate-buffered physiological saline (PBS), and 5% bovine serum albumin-containing PBS (5% BSA/PBS) was added thereto in an amount of 300 μL/well, and statically kept at room temperature for 2 hours, and then again washed three times with PBS. A mouse anti-Cdc2 antibody solution that had been diluted 100-fold with 0.05% polyoxyethylene sorbitan monolaurate and 1% BSA-containing Tris-HCl-buffered physiological saline (1% BSA/TBS-T) was added to it in an amount of 50 μL/well, and the cell solution was added thereto in an amount of 5 μL/well and statically kept overnight at 4° C. Next, this was washed three times with 0.05% polyoxyethylene sorbitan monolaurate and 0.1% BSA-containing Tris-HCl-buffered physiological saline (0.1% BSA/TBS-T), and then a horseradish peroxidase-labeled anti-mouse IgG antibody solution that had been diluted 2000-fold with 1% BSA/TBS-T was added thereto in an amount of 70 μL/well, and statically kept at room temperature for 3 hours. […]

Wee1 kinase = molecular target: T1, Wee1 kinase (Homo sapiens, UniProt P30291); experiment: Wee1 kinase-inhibitory effect (33P-ATP, Poly(Lys,Tyr) substrate, filter assay); format: biochemical; details: 10 μM ATP, 30° C., 30 minutes
T1 construct: made in house; host or cells: Sf9 insect cells (recombinant baculovirus)
T1 sequence (P30291 whole entry): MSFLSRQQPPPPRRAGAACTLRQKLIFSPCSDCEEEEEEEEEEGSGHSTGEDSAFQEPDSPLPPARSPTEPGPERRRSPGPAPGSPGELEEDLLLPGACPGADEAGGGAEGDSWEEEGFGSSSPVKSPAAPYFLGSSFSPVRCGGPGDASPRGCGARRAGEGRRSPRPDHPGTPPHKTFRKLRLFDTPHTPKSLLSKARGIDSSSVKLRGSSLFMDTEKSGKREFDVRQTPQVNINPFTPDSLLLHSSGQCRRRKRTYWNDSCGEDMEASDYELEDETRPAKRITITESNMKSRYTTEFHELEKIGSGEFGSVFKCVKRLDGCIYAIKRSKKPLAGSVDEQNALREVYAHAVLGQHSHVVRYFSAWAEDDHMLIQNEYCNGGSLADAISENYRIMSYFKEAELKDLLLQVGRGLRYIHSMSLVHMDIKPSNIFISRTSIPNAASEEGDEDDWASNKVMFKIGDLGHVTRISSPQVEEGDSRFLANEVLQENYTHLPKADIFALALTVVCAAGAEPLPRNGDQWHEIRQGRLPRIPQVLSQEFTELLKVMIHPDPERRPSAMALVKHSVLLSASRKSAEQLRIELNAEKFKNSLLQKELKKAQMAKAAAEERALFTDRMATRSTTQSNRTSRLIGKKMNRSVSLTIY
From the text: Pharmacological Test 1 (Wee1 Kinase-Inhibitory Effect)
(1) Purification of Wee1 Kinase:
A cDNA of Wee1 kinase with […] (GST) fused at the amino terminal thereof was inserted into a baculovirus expression vector to construct a recombinant baculovirus, with which cells of an insect cell line Sf9 were infected for high expression therein. The infected cells were recovered and solubilized, and then the GST-tagged Wee1 kinase protein was adsorbed by a glutathion column, and eluted from the column with glutathion, and the active fraction was desalted in a desalting column to give a purified enzyme.
(2) Determination of Wee1 Kinase Activity:
In determination of the Wee1 kinase activity, a synthetic peptide, Poly(Lys,Tyr) Hydrobromide (Lys:Tyr (4:1)) bought from Sigma was used as the substrate.
The amount of the reaction liquid was 21.1 μL; and the composition of the reaction buffer was 50 mM Tris-HCl buffer (pH 7.4)/10 mM magnesium chloride/1 mM dithiothreitol. The purified Wee1 kinase, 2.5 μg of the substrate peptide, 10 μM of non-labeled adenosine triphosphate (ATP) and 1 μCi of [γ-^33P]-labeled ATP (2500 Ci/mmol or more) were added to it, and reacted at 30° C. for 30 minutes. Next, 10 μL of 350 mM phosphate buffer was added to the reaction system to stop the reaction. The substrate peptide was adsorbed by a P81 paper filter 96-well plate, then washed a few times with 130 mM phosphate buffer, and its radioactivity was counted with a liquid scintillation counter. The [γ-^33P]-labeled ATP was bought from Amersham Bioscience.
To add the test compound to the reaction system, the compound was diluted with dimethylsulfoxide (DMSO) to prepare a series of dilutions. 1.1 μL of each dilution was added to the reaction system. As a control, 1.1 μL of DMSO was added to the reaction system.

Compound	EC50 [1] [nM]	IC50 (Wee1 kinase) [nM]
CCN1CCc2cc(Nc3ncc4c(=N)n(-c5c(Cl)cccc5Cl)c(=O)[nH]c4n3)ccc2C1 [Example 30, 3-(2,6-dichlorophenyl)-4-imino-7-{[2-ethyl-1,2,3,4-tetrahydroisoquinolin-6-yl]amino}-3,4-dihydropyrimido[4,5-d]pyrimidin-2(1H)-one]	25	7.1
CN1CCc2cc(Nc3ncc4c(=N)n(-c5c(Cl)cccc5Cl)c(=O)[nH]c4n3)ccc2C1(C)C [Example 4, 3-(2,6-dichlorophenyl)-4-imino-7-[(1,1,2-trimethyl-1,2,3,4-tetrahydroisoquinolin-6-yl)amino]-3,4-dihydropyrimido[4,5-d]pyrimidin-2(1H)-one]	28	8.3
CN(C)C1CC(C)(C)c2ccc(Nc3ncc4c(=N)n(-c5c(Cl)cccc5Cl)c(=O)[nH]c4n3)cc21 (stereo not drawn) [Example 10]	61	13.1
CN(C)CC1CCc2cc(Nc3ncc4c(=N)n(-c5c(Cl)cccc5Cl)c(=O)[nH]c4n3)ccc2C1 (stereo not drawn) [Example 53]	59	6.5
CN(C)C1CCc2ccc(Nc3ncc4c(=N)n(-c5c(Cl)cccc5Cl)c(=O)[nH]c4n3)cc2C1 (stereo not drawn) [Example 43]	45	5.1
CN1Cc2cc(Nc3ncc4c(=O)n(-c5c(Cl)cccc5Cl)c(=O)[nH]c4n3)ccc2C2(CC2)C1 [Example 82, 3-(2,6-dichlorophenyl)-7-[(2′-methyl-2′,3′-dihydro-1′H-spiro[cyclopropane-1,4′-isoquinolin]-7′-yl)amino]pyrimido[4,5-d]pyrimidin-2,4(1H,3H)-dione]	30	3.3
CN1CCc2ccc(Nc3ncc4c(=N)n(-c5c(F)cccc5Cl)c(=O)[nH]c4n3)cc2C1 [Example 16, 3-(2-chloro-6-fluorophenyl)-4-imino-7-{[2-methyl-1,2,3,4-tetrahydroisoquinolin-7-yl]amino}-3,4-dihydropyrimido[4,5-d]pyrimidin-2(1H)-one]	50	6.8
CN(C)C1Cc2ccc(Nc3ncc4c(=N)n(-c5c(Cl)cccc5Cl)c(=O)[nH]c4n3)cc2C1 (stereo not drawn) [Example 39]	37	6.5
Cc1cc(Nc2ncc3c(=N)n(-c4c(Cl)cccc4Cl)c(=O)[nH]c3n2)cc2c1CCN(C)C2 [Example 21, 3-(2,6-dichlorophenyl)-7-{[2,5-dimethyl-1,2,3,4-tetrahydroisoquinolin-7-yl]amino}-4-imino-3,4-dihydropyrimido[4,5-d]pyrimidin-2(1H)-one]	11	4.8
Cc1cccc(Cl)c1-n1c(=O)[nH]c2nc(Nc3ccc4c(c3)CN(C)CC43CC3)ncc2c1=N [Example 14, 3-(2-chloro-6-methylphenyl)-4-imino-7-[(2′-methyl-2′,3′-dihydro-1′H-spiro[cyclopropane-1,4′-isoquinolin]-7′-yl)amino]-3,4-dihydropyrimido[4,5-d]pyrimidin-2(1H)-one]	77	10.4
CN1CCc2ccc(Nc3ncc4c(=N)n(-c5c(Cl)cccc5Cl)c(=O)[nH]c4n3)cc2CC1 [Example 48, 3-(2,6-dichlorophenyl)-4-imino-7-[(3-methyl-2,3,4,5-tetrahydro-1H-3-benzazepin-7-yl)amino]-3,4-dihydropyrimido[4,5-d]pyrimidin-2(1H)-one]	54	8.6
Cn1c(=O)n(-c2c(Cl)cccc2Cl)c(=N)c2cnc(Nc3ccc4c(c3)CCN(CCO)C4(C)C)nc21 [Example 22, 3-(2,6-dichlorophenyl)-7-{[2-(2-hydroxyethyl)-1,1-dimethyl-1,2,3,4-tetrahydroisoquinolin-6-yl]amino}-4-imino-1-methyl-3,4-dihydropyrimido[4,5-d]pyrimidin-2(1H)-one]	16	5.2
CN(C)C1Cc2ccc(Nc3ncc4c(=N)n(-c5c(Cl)cccc5Cl)c(=O)n(C)c4n3)cc2C1 (stereo not drawn) [Example 9]	24	6.6
CN1CCc2cc(Nc3ncc4c(=N)n(-c5c(Cl)ccnc5Cl)c(=O)[nH]c4n3)ccc2C1(C)C [Example 5, 3-(2,4-dichloropyridin-3-yl)-4-imino-7-{[1,1,2-trimethyl-1,2,3,4-tetrahydroisoqunolin-6-yl]amino}-3,4-dihydropyrimido[4,5-d]pyrimidin-2(1H)-one]	70	9.6
CN1CCc2ccc(Nc3ncc4c(=N)n(-c5c(F)cc(F)cc5Cl)c(=O)[nH]c4n3)cc2C1 [Example 17, 3-(2-chloro-4,6-difluorophenyl)-4-imino-7-{[2-methyl-1,2,3,4-tetrahydroisoquinolin-7-yl]amino}-3,4-dihydropyrimido[4,5-d]pyrimidin-2(1H)-one]	47	9.2
CC(=O)N1CCc2cc(Nc3ncc4c(=N)n(-c5c(Cl)cccc5Cl)c(=O)[nH]c4n3)ccc2C1(C)C [Example 79, 7-[(2-acetyl-1,1-dimethyl-1,2,3,4-tetrahydroisoquinolin-6-yl)amino]-3-(2,6-dichlorophenyl)-4-imino-3,4-dihydropyrimido[4,5-d]pyrimidin-2(1H)-one]		6.3
CN1CCc2ccc(Nc3ncc4c(=N)n(-c5c(Cl)cc(F)cc5Cl)c(=O)[nH]c4n3)cc2C1 [Example 18, 3-(2,6-dichloro-4-fluorophenyl)-4-imino-7-{[2-methyl-1,2,3,4-tetrahydroisoquinolin-7-yl]amino}-3,4-dihydropyrimido[4,5-d]pyrimidin-2(1H)-one]	35	8.9
